“Also recorded” adds a separate entry of the source. Where two headings read alike, the source gives them in different places.

For test [1], the target named is T1, PAC1-R (Homo sapiens, UniProt P41586).
T1 sequence (P41586 21-468): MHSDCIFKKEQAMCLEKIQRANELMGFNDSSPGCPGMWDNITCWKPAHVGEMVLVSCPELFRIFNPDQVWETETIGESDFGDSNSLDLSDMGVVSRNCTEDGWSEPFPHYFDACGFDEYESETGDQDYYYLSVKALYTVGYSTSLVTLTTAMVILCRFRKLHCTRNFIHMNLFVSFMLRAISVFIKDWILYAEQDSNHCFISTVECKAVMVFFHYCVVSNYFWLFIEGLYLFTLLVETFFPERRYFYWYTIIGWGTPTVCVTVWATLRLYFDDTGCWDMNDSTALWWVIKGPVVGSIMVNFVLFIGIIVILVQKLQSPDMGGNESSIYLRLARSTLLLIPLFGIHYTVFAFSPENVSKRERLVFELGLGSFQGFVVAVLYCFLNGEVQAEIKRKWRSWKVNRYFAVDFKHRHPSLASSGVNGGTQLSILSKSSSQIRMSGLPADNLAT
Put plainly: [3H]cAMP generation in PAC1-R cells. It counts as cell-based.

Test [2] has as its target T2, VPAC2-R (Homo sapiens, UniProt P41587).
T2 sequence (P41587 24-438): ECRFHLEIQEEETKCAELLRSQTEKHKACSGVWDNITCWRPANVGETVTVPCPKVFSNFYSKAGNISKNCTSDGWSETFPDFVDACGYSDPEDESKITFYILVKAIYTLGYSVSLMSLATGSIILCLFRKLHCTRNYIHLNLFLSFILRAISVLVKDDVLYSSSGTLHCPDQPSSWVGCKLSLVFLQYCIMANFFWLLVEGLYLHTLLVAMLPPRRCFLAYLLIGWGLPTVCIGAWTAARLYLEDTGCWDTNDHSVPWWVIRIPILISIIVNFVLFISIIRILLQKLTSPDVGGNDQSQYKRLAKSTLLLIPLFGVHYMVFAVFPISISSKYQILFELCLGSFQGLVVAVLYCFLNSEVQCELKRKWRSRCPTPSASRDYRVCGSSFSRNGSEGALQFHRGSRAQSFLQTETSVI
Put plainly: [3H]cAMP generation in VPAC2-R/PANC-1 cells. The format is cell-based. As to conditions: for maximal increase in cAMP, VPAC2-R/PANC-1 cells: over control.

Test [3] has as its target T1, PAC1-R. Put plainly: [3H]Inositol phosphate generation. As to conditions: PAC1-R cells, IP EC50/cAMP EC50. The format is cell-based.
The target in test [4] is T3, VPAC1-R (Homo sapiens, UniProt P32241).
T3 sequence (P32241 31-457): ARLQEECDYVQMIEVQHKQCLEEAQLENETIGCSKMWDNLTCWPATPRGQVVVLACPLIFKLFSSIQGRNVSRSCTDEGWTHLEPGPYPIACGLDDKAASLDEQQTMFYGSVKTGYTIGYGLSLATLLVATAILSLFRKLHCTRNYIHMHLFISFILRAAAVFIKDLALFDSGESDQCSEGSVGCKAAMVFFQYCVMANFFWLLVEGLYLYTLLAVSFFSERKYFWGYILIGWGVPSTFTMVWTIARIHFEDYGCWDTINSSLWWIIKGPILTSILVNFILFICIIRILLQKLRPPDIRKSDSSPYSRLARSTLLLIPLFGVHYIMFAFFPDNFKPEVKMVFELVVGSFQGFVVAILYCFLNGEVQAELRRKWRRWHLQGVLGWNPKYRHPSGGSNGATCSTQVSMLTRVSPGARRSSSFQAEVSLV
Put plainly: [3H]cAMP generation in VPAC1-R/PANC-1 cells. The format is cell-based.

Test [5] deals with T3, VPAC1-R. Put plainly: Binding of 125I-VIP to VPAC1-R/PANC-1 cells.
The target of test [6] is T3, VPAC1-R. Put plainly: [3H]cAMP generation in T47D cells. The format is cell-based. As to conditions: for [3H]cAMP T47D % max (agonist class): relative to PACAP38, up to 1 µM.
Test [7] has as its target T2, VPAC2-R. Put plainly: Binding of 125I-PACAP27 to VPAC2-R/PANC-1 cells. As to conditions: ratio of binding IC50, analog vs native parent peptide.
The target in test [8] is T1, PAC1-R. Put plainly: Binding of 125I-PACAP27 to PAC1-R stably transfected NIH 3T3 cells.
The target of test [9] is T1, PAC1-R. Conditions: PAC1-R over VPAC1-R; ref [13]; cited from earlier work.
The mark [10] stands for this setting: ratio of binding IC50, analog vs native parent peptide.

Consider PACAP38 [reference compound], for which, at PAC1-R [1], the “maximal increase in cAMP, PAC1-R cells” value is 4.1 ± 1.5 fold. The “maximal increase in cAMP, VPAC2-R/PANC-1 cells” value on VPAC2-R [2] is 6.5 ± 2.0 fold. In addition, at PAC1-R [3], the “less potent at stimulating [3H]IP (PLC) than cAMP” value came out at 19 fold. For the same substance, at VPAC1-R [4], the “coupling ratio (IC50-binding affinity/EC50-cAMP generation), VPAC1-R/PANC-1 cells” value is listed as 2.5 fold and the “maximal increase in cAMP, VPAC1-R/PANC-1 cells” value worked out at 5.0 ± 0.7 fold.

Turning to [Pro^3]VIP [Peptide P50], the “decrease in affinity for VPAC1-R/PANC-1 cells compared to native PACAP38 (or PACAP27, VIP)” value on VPAC1-R [5] (setting [10]) is recorded as over 500 fold. The “[3H]cAMP PAC1-R % max (agonist class)” value at PAC1-R [1] (PAC1-R cells, relative to maximal stimulation by PACAP38, up to 1 µM) is “no agonist activity; also recorded: No Act”. In addition, on VPAC1-R [6] (at 1 µM), the “[3H]cAMP T47D % max, agonist activity at 1 µM, still increasing” value is recorded as “Ag (1 µM, 68) % max”. Besides, the “[3H]cAMP T47D % max (agonist class)” value on VPAC1-R [6] is recorded as “Ag (1 µM, 68)”. Besides, the “decrease in affinity for VPAC2-R/PANC-1 cells compared to native PACAP38 (or PACAP27, VIP)” value on VPAC2-R [7] was over 500 fold. The “[3H]cAMP VPAC2-R/PANC-1 % max (agonist class)” value on VPAC2-R [2] (VPAC2-R/PANC-1 cells, relative to PACAP38, up to 1 µM) is “Ag (1 µM, 52)”. The “lower affinity for PAC1-R cells than VPAC1-R/PANC-1 cells” value at PAC1-R [8] (binding IC50 ratio, VPAC1-R preferring) was 6–10 fold. For the same substance, at VPAC1-R [4] (VPAC1-R/PANC-1 cells, relative to PACAP38, up to 1 µM), the “[3H]cAMP VPAC1-R/PANC-1 % max (agonist class)” value was “Ag (1 µM, 68)”.

As to [D-Ser^2]PACAP27 [Peptide P4], the “decrease in affinity for VPAC1-R/PANC-1 cells compared to native PACAP38 (or PACAP27, VIP)” value at VPAC1-R [5] (setting [10]) amounted to 37 fold. Besides, at PAC1-R [1], the “higher potency for PAC1-R cells compared to VPAC1-R/PANC-1 cells” value is listed as 2-to-5 fold and the “higher potency for PAC1-R cells compared to VPAC2-R/PANC-1 cells” value was 12–140 fold. Besides, the “[3H]cAMP T47D % max of partial agonist” value at VPAC1-R [6] (partial agonist maximum) is listed as “pAg (90) % max”. In addition, the “[3H]cAMP T47D % max (agonist class)” value at VPAC1-R [6] is listed as “pAg (90)”. Also, the “decrease in affinity for VPAC2-R/PANC-1 cells compared to native PACAP38 (or PACAP27, VIP)” value at VPAC2-R [7] is reported as 7 fold. Further, at PAC1-R [8], the “decrease in affinity for PAC1-R cells compared to native PACAP38 (or PACAP27)” value (from here on “decrease in affinity for PAC1-R cells”) is on record as 15–25 fold, the “lower affinity for PAC1-R cells than VPAC1-R/PANC-1 cells” value is reported as 6–10 fold and the “lower affinity for PAC1-R cells than VPAC2-R/PANC-1 cells” value is 2–9 fold. Besides, on PAC1-R [9], the “PAC1-selectivity reported in a previous study” value is given as 3 fold.

As for PACAP27 [reference compound], the “higher affinity than PACAP38 for VPAC1-R/PANC-1 cells” value on VPAC1-R [5] (binding IC50 ratio) is listed as 6 fold. In addition, on PAC1-R [1], the “coupling ratio (IC50-binding affinity/EC50-cAMP generation), PAC1-R cells” value turned out to be 94 fold and the “maximal increase in cAMP, PAC1-R cells” value was 4.1 ± 1.5 fold. On VPAC2-R [2], the “coupling ratio (IC50-binding affinity/EC50-cAMP generation), VPAC2-R/PANC-1 cells” value amounted to 4.8 fold and the “maximal increase in cAMP, VPAC2-R/PANC-1 cells” value was determined as 6.5 ± 2.0 fold. Besides, on PAC1-R [8], the “decrease in affinity for PAC1-R cells” value came out at 10 fold, the “higher affinity (selectivity) for PAC1-R cells over VPAC2-R/PANC-1 cells” value was 2 fold and the “lower affinity for PAC1-R cells than VPAC1-R/PANC-1 cells” value came to 12 fold. The “coupling ratio (IC50-binding affinity/EC50-cAMP generation), VPAC1-R/PANC-1 cells” value at VPAC1-R [4] is 1.2 fold. Besides, the “maximal increase in cAMP, VPAC1-R/PANC-1 cells” value at VPAC1-R [4] (over control) came to 5.0 ± 0.7 fold.

For the substance [D-Ser^2]PACAP38 [Peptide P16], the “decrease in affinity for VPAC1-R/PANC-1 cells compared to native PACAP38 (or PACAP27, VIP)” value at VPAC1-R [5] is reported as 100–500 fold. Besides, at PAC1-R [1], the “higher potency for PAC1-R cells compared to VPAC1-R/PANC-1 cells” value is listed as 2-to-5 fold and the “higher potency for PAC1-R cells compared to VPAC2-R/PANC-1 cells” value is listed as 12–140 fold. Further, the “decrease in affinity for VPAC2-R/PANC-1 cells compared to native PACAP38 (or PACAP27, VIP)” value on VPAC2-R [7] is reported as 15–500 fold. Further, the “decrease in affinity for PAC1-R cells” value on PAC1-R [8] is 11–30 fold.

Values taken from paper PMC4420714 (Peptides, 2015).
